The values that follow are results of earlier work, collected in patent publication US12471592B2, “Cytoprotective compositions for short-term cells storage and transportation without cryopreservation and deep freezing” (priority 2021, dated 2025).

One data set relates to mouse blastocysts. The settings on record: for blastocysts survived: 20% vol/vol CPAs for 40 min at room temperature; for blastocysts subsequently developed: 30% vol/vol CPAs for 10 min at room temperature.
Data set [1] relates to vascular endothelial cells. The settings on record: for increase of permeability: raising the temperature from 2-4° C. to 22° C.; for Permeability: vascular endothelial cells, 2-4° C.
Data set [2] has as its system vascular endothelial cells. The following applies: vitrifying concentrations, 2-4° C. for 9 min.
Another data set has as its system endothelial cells. The following applies: reducing concentration from 3.0 M to 2.0 M.
The test system of a further data set is fibroblasts. The settings on record: 1% DMSO, within 5 sec.
Another data set deals with Rat retina cells. The settings on record: 24 hr exposure.
A further data set deals with bacteria. The settings on record: 33% DMSO for 10 min.
A further data set relates to mouse morula. The settings on record: for minimum concentration giving significant reduction of mouse morula survival: 5 min of 25° C. exposure.
In data set [3] the test system is Chinese hamster ovary cell lines.
Data set [4] relates to ARPE 19 human retinal pigment epithelial cell line.
The subject of the next data set is mouse oocytes. The settings on record: increasing molarity.
The mark [5] stands for this setting: cytochrome P450 oxidation system added.

Like-named read-outs stand apart in the source and are kept apart here. Where only a bound is given, the exact number is not on record here.

For the molecule `CC(O)C(C)O` (stereo not drawn) [BD, 2,3-butanediol], in the data set with mouse blastocysts, the blastocysts survived was 8.3% and the blastocysts subsequently developed is recorded as 8.7%. Besides, in [1], the increase of permeability is on record as 17 fold and the Permeability was 4.1 cm/sec×10^−6. The cell survival in data set [2] was 76.3%. Besides, in the data set on endothelial cells, the “factor by which endothelial cell loss was cut” value is 35.

Consider `C[S+](C)[O-]` [DMSO, dimethylsulfoxide], for which the blastocysts survived in the data set on mouse blastocysts is listed as 96.7%. Also, in the data set with mouse blastocysts, the blastocysts subsequently developed is on record as 25.0%. Besides, the increase of permeability in data set [1] is 17 fold. In addition, the Permeability in data set [1] is recorded as 2.4 cm/sec×10^−6. Besides, the “increase of intracellular calcium” value in the data set with fibroblasts is recorded as “two- to six-fold”. Moreover, the “concentration at which apoptosis was exhibited” value in the data set with Rat retina cells is reported as at least 0.1 % vol/vol. Also, the cell survival in data set [2] is 37.0%. The “concentration giving irreversible ultrastructural alterations to rat myocardium” value in the data set with rat myocardium (at 15° C.) is “above 2.82 M”; in the data set on rat myocardium (at 30° C.) it was “above 1.41 M”. In addition, in the data set on endothelial cells, the “factor by which endothelial cell loss was cut” value is listed as 3. The “concentrations giving dose-dependent reduction in rat heart rate” value in the data set with rat heart rate is listed as “above 0.14 M”. In the data set on bacteria, the increase in mutagenicity is 10 fold. Besides, in the data set on mouse morula, the “minimum concentration giving significant reduction of mouse morula survival” value is recorded as 5 M. The chromosome damage entry is given as “not” in data set [3] (setting [5]) and “No chromosome damage” in data set [3] (without oxidation system).

For the molecule `CO` [METH, methanol], the “concentrations resulting in protein damage or proteolysis” value with fish oocytes is given as “above 6 M”. Moreover, the “concentration showing reduced mouse morula survival” value with mouse morula (10 min exposure) was 6 M.

Consider `O=c1c(O)c(-c2ccc(O)c(O)c2)oc2cc(O)cc(O)c12` [quercetin], for which the “level of ROS” value in data set [4] (compared with the control groups, 300 μM H2O2) is given as “decreased”. Also, the cell viability result in [4] (pretreated with quercetin (0.80 μM) before exposure to 300 μM H2O2) is reported as “preserved in quercetin group in a dose dependent manner, particularly at 20 μM”.

Regarding `OCCO` [EG, ethylene glycol], in the data set with mouse blastocysts, the blastocysts survived was 95.8% and the blastocysts subsequently developed is listed as 74.6%. In data set [1], the increase of permeability entry was “nine-fold” and the Permeability is given as 2.0 cm/sec×10^−6. Besides, the cell survival in data set [2] is 33.2%. In the data set on mouse morula, the “minimum concentration giving significant reduction of mouse morula survival” value was 7 M. In [3] (setting [5]), the chromosome damage entry is “substantial chromosome damage”. Moreover, the chromosome damage result in data set [3] (without oxidation system) is on record as “No chromosome damage”.

Turning to `OCC(O)CO` [GLY, glycerol], the blastocysts survived in the data set on mouse blastocysts is 81.7%. The “minimum concentration giving significant reduction of mouse morula survival” value with mouse morula is given as 6 M.

Turning to `CC(O)CCO` (stereo not drawn) [1,3-butanediol], the blastocysts survived in the data set with mouse blastocysts was 64.2%.

For `CC(O)CO` (stereo not drawn) [PG, propylene glycol], in the data set on mouse blastocysts, the blastocysts survived is given as 87.5% and the blastocysts subsequently developed is reported as 2.1%. Further, in [1], the increase of permeability is reported as 13 fold and the Permeability is recorded as 3.0 cm/sec×10^−6. For the same molecule, the “concentration impairing the developmental potential of mouse zygotes by decreasing intracellular pH” value in the data set on mouse zygotes was over 2.5 M. In addition, in data set [2], the cell survival is reported as 63.6%. In addition, the “formaldehyde increase relative to DMSO or GLY” value with mouse oocytes is on record as “more than 30 fold”. Also, the “minimum concentration giving significant reduction of mouse morula survival” value in the data set on mouse morula is given as 4 M. The chromosome damage entry in data set [3] (without oxidation system) is recorded as “substantial chromosome damage”.
